Consider nine compounds from patent publication US5310930A, “Benzofuranylimidazole derivatives, a process for their preparation and therapeutical compositions containing the same” (priority 1991, dated 1994).

The target of assay [1] is imidazoline preferring receptor (IR). Description: Displacement of 3H-idazoxan (4 nM) in the presence of (-)-adrenaline (IR affinity). The conditions noted are these: for pKi: 3H-idazoxan (4 nM), (-)-adrenaline (10^-6 M), rat cerebral cortex, mean of 10 experiments; for Selectivity IR/α1: selectivity ratio for IR/alpha1 from Ki values; for Selectivity IR/α2: selectivity ratio for IR/alpha2 from Ki values. Type of assay: binding, rat. Here is the method:
(§1) Initial biological evaluation of alpha1 - and alpha2 -adrenoceptor and imidazoline preferring receptor (IR) affinities and selectivities in homogenized rat cerebral cortex were assessed by determining the Ki values of the compounds to displace ^3 H-prazosin ^3 H-clonidine as well as ^3 H-idazoxan in the presence of (-)-adrenaline according to the method of Olmos et al. (J. Neurochem. 1991, 57:1811-1813).
(§2) This in vitro model is particularly useful as an initial screening for studying the affinity and the selectivity of these compounds on the imidazoline receptors.
(Loss of bound radioactivity is the signal in a displacement assay; it reports binding, not function.)

Assay [2] has as its target T1, alpha2-adrenoceptor (Rattus norvegicus, UniProt P22909).
T1 sequence (P22909 1-465): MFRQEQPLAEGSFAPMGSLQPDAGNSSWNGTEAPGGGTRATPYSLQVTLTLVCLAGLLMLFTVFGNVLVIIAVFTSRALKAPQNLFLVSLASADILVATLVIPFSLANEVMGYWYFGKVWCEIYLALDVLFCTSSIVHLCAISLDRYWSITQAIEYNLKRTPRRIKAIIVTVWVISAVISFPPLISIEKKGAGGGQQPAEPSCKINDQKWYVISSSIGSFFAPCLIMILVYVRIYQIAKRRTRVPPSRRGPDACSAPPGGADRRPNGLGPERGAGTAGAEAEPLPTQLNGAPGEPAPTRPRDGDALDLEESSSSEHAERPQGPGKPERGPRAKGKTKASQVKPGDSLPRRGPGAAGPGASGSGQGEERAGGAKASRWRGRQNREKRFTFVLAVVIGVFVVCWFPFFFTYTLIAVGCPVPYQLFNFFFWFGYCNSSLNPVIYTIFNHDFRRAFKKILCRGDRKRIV
In words: Displacement of 3H-clonidine (2 nM) (alpha2-adrenoceptor affinity). Format: binding.

In assay [3] the target is alpha1-adrenoceptor. Description: Displacement of 3H-prazosin (0.5 nM) (alpha1-adrenoceptor affinity). The conditions noted are these: rat cerebral cortex, mean of 10 experiments. Type of assay: binding. Here is the method:
as §1, §2

Assay [4] deals with rats. Description: In vivo feeding behavior in rats (cumulative food intake after i.p. administration). On the set-up: species or system rat. The settings on record: for hyperphagic potency relative to idazoxan: 25 mg/kg i.p. versus idazoxan 10 mg/kg i.p.; for acute hyperphagic effect respect to the control group / cumulative food intake: rats; for acute hyperphagic effect respect to the control group: 1-4 h, P<0.05; for cumulative food intake: N=5. From the text: At present, certain compounds of the invention (Examples 1,2 and 3) have shown an in vivo CNS functional activity, such as: feeding behavior in rats.

The conditions of assay [5]: Indian J. Chem. 1979, 18B, 254; cited from earlier work.
For assay [6] the following is noted: Indian J. Chem. 1979, 18B, 254; cited from earlier work. This is another data set of the same source.
Where [7] appears, read: 3H-clonidine (2 nM), rat cerebral cortex, mean of 10 experiments, read-out: Affinity (Ki) Alpha2.

pKi: −log10 of the molar value. Where two headings read alike, the source gives them in different places.

The pKi is −log10 of the Ki, conventionally taken in molar units. For the compound `COc1ccc2oc(-c3ncc[nH]3)cc2c1.Cl` [Example 7, 2-(5-methoxybenzofuran-2-yl)imidazole hydrochloride], the pKi is 6.79 in assay [1], 4.01 in assay [2] (setting [7]) and 5.36 in assay [3]. For the same compound, the “Selectivity IR/α1” value in assay [1] is 27. For the same compound, in assay [1], the “Selectivity IR/α2” value turned out to be 605.

As for `Cl.c1ccc2oc(-c3ncc[nH]3)cc2c1` [Example 1, 2-(benzofuran-2-yl)imidazole hydrochloride], the pKi in assay [1] was 7.05; in assay [2] it was 4.00; in assay [3], 4.44. Also, the “Selectivity IR/α1” value in assay [1] is 410. Also, in assay [1], the “Selectivity IR/α2” value is on record as 1 125. In addition, the “hyperphagic potency relative to idazoxan” value in assay [4] is “lower in potency than those induced by idazoxan”. In assay [4] (25 mg/kg i.p.), the “acute hyperphagic effect respect to the control group” value is 7-10 fold. Moreover, the cumulative food intake came to 3.0 ± 2.0 g/kg body weight in assay [4] (25 mg/kg i.p., 1 h); 4.0 ± 2.1 g/kg body weight in assay [4] (25 mg/kg i.p., 2 h); 4.8 ± 2.0 g/kg body weight in assay [4] (25 mg/kg i.p., 4 h).

`c1ccc2oc(C3=NCCN3)cc2c1`: the antifungal activity result in assay [5] was “without showing any noteworthy activity”. Further, in assay [6], the antibacterial activity entry was “without showing any noteworthy activity”.

`COc1ccc2cc(-c3ncc[nH]3)oc2c1.Cl` [Example 3, 2-(6-methoxybenzofuran-2-yl)imidazole hydrochloride]: in assay [1], the pKi is 6.82, the “Selectivity IR/α1” value is given as 118 and the “Selectivity IR/α2” value was determined as 372. In assay [2] (setting [7]), the negative-log Ki (pKi) was 4.25. Further, the “hyperphagic potency relative to idazoxan” value in assay [4] is reported as “lower in potency than those induced by idazoxan”. The “acute hyperphagic effect respect to the control group” value in assay [4] (25 mg/kg i.p.) is 7-10 fold. This compound also gave a pKi in assay [3] of 4.75.

Regarding `Brc1ccc2oc(-c3ncc[nH]3)cc2c1.Cl` [Example 6, 2-(5-bromobenzofuran-2-yl)imidazole hydrochloride], the pKi in assay [1] was 6.93; in assay [2] (setting [7]) it was 4.17; in assay [3] it was 4.48. In assay [1], the “Selectivity IR/α1” value came to 284. The “Selectivity IR/α2” value in assay [1] worked out at 584.

Regarding `COC1(C2=NCCN2)COc2ccccc2O1` (stereo not drawn) [RX 821002, reference compound], in assay [1], the negative-log Ki (pKi) was 4.35 and the “Selectivity IR/α2” value is reported as 0.00002. Besides, the pKi in assay [2] (setting [7]) was 9.15.

As for `Cl.Cn1ccnc1-c1cc2ccccc2o1` [Example 2, 1-methyl-2-(benzofuran-2-yl)imidazole hydrochloride], the pKi in assay [1] was 7.82; in assay [2] (setting [7]) it was 4.21; in assay [3], 4.58. The “potency for the I2-imidazoline receptors relative to idazoxan” value in assay [1] (data derived from binding studies) is reported as “equally as potent as idazoxan”. In addition, in assay [1] (data derived from binding studies (Table 1)), the “selectivity relative to idazoxan” value is listed as “much more selective”. Besides, in assay [1], the Selectivity IR/α1 was determined as 1740. Besides, the Selectivity IR/α2 in assay [1] worked out at 4140. Also, the “hyperphagic potency relative to idazoxan” value in assay [4] is reported as “lower in potency than those induced by idazoxan”. The “acute hyperphagic effect respect to the control group” value in assay [4] (25 mg/kg i.p.) is 7-10 fold. Besides, the cumulative food intake was 2.7 ± 1.5 g/kg body weight in assay [4] (25 mg/kg i.p., 1 h); 3.0 ± 1.5 g/kg body weight in assay [4] (25 mg/kg i.p., 2 h); 3.6 ± 1.4 g/kg body weight in assay [4] (25 mg/kg i.p., 4 h).

Consider `c1ccc2c(c1)OCC(C1=NCCN1)O2` (stereo not drawn) [Idazoxan, reference compound], for which the pKi was 7.85 in assay [1] and 7.04 in assay [3]. Moreover, the cumulative food intake came to 3.7 ± 1.2 g/kg body weight in assay [4] (10 mg/kg i.p., 1 h); 5.6 ± 2.1 g/kg body weight in assay [4] (10 mg/kg i.p., 2 h); 7.4 ± 2.3 g/kg body weight in assay [4] (10 mg/kg i.p., 4 h).

With `CCn1ccnc1-c1cc2ccc(OC)cc2o1.Cl` [Example 9, 1-ethyl-2-(6-methoxybenzofuran-2-yl)imidazole hydrochloride], in assay [1], the pKi is 6.91, the “Selectivity IR/α1” value turned out to be 184 and the “Selectivity IR/α2” value is given as 580. Also, the pKi in assay [2] (setting [7]) was 4.15. In assay [3], this compound showed a pKi of 4.65.
